Assay results reported in patent publication US20100099561A1, “HETEROBICYCLIC ALKYLTHIO-BRIDGED ISOXAZOLINES” (E.I. DU PONT DE NEMOURS AND COMPANY, priority 2008, published 2010).

Experiments:
Format in all cases: in vivo
[1] = test system: barnyardgrass (Echinochloa crus-galli); assay: Test A preemergence, barnyardgrass; conditions: 0 to 100 scale (0 no effect, 100 complete control)
Excerpt: (§1) Seeds of barnyardgrass (Echinochloa crus-galli), large crabgrass (Digitaria sanguinalis), giant foxtail (Setaria faberi), morningglory (Ipomoea spp.), pigweed (Amaranthus retroflexus), velvetleaf (Abutilon theophrasti), wheat (Triticum aestivum), and corn (Zea mays) were planted into a blend of loam soil and sand and treated preemergence with a directed soil spray using test chemicals formulated in a non-phytotoxic solvent mixture which included a surfactant. At the same time these species were also treated with postemergence applications of test compounds formulated in the same manner. Plants ranged in height from two to ten cm and were in the one- to two-leaf stage for the postemergence treatment. Treated plants and untreated controls were maintained in a greenhouse for approximately ten days, after which time all treated plants were compared to untreated controls and visually evaluated for injury. Plant response ratings, summarized in Table A, are based on a 0 to 100 scale where 0 is no effect and 100 is complete control. A dash (-) response means no test result.

[2] = test system: large crabgrass (Digitaria sanguinalis); assay: Test A preemergence, large crabgrass; conditions: 0 to 100 scale (0 no effect, 100 complete control)
Excerpt: as §1

[3] = test system: giant foxtail (Setaria faberi); assay: Test A preemergence, giant foxtail; conditions: 0 to 100 scale (0 no effect, 100 complete control)
Excerpt: as §1

[4] = test system: morningglory (Ipomoea spp.); assay: Test A preemergence, morningglory; conditions: 0 to 100 scale (0 no effect, 100 complete control)
Excerpt: as §1

[5] = test system: pigweed (Amaranthus retroflexus); assay: Test A preemergence, pigweed; conditions: 0 to 100 scale (0 no effect, 100 complete control)
Excerpt: as §1

[6] = test system: velvetleaf (Abutilon theophrasti); assay: Test A preemergence, velvetleaf; conditions: 0 to 100 scale (0 no effect, 100 complete control)
Excerpt: as §1

[7] = test system: wheat (Triticum aestivum); assay: Test A preemergence, wheat; conditions: 0 to 100 scale (0 no effect, 100 complete control)
Excerpt: as §1

[8] = test system: corn (Zea mays); assay: Test A preemergence, corn; conditions: 0 to 100 scale (0 no effect, 100 complete control)
Excerpt: as §1

[9] = test system: barnyardgrass (Echinochloa crus-galli); assay: Test A postemergence, barnyardgrass; conditions: 0 to 100 scale (0 no effect, 100 complete control)
Excerpt: as §1

[10] = test system: large crabgrass (Digitaria sanguinalis); assay: Test A postemergence, large crabgrass; conditions: 0 to 100 scale (0 no effect, 100 complete control)
Excerpt: as §1

[11] = test system: giant foxtail (Setaria faberi); assay: Test A postemergence, giant foxtail; conditions: 0 to 100 scale (0 no effect, 100 complete control)
Excerpt: as §1

[12] = test system: morningglory (Ipomoea spp.); assay: Test A postemergence, morningglory; conditions: 0 to 100 scale (0 no effect, 100 complete control)
Excerpt: as §1

[13] = test system: pigweed (Amaranthus retroflexus); assay: Test A postemergence, pigweed; conditions: 0 to 100 scale (0 no effect, 100 complete control)
Excerpt: as §1

[14] = test system: velvetleaf (Abutilon theophrasti); assay: Test A postemergence, velvetleaf; conditions: 0 to 100 scale (0 no effect, 100 complete control)
Excerpt: as §1

[15] = test system: wheat (Triticum aestivum); assay: Test A postemergence, wheat; conditions: 0 to 100 scale (0 no effect, 100 complete control)
Excerpt: as §1

[16] = test system: corn (Zea mays); assay: Test A postemergence, corn; conditions: 0 to 100 scale (0 no effect, 100 complete control)
Excerpt: as §1

[17] = test system: rice (Oryza sativa); assay: Test B flooded paddy test, rice; conditions: Flood, scale 0 to 100
Excerpt: (§2) Plant species in the flooded paddy test consisted of rice (Oryza sativa), umbrella sedge (Cyperus difformis), ducksalad (Heteranthera limosa) and barnyardgrass (Echinochloa crus-galli) grown to the 2-leaf stage for testing. At time of treatment, test pots were flooded to 3 cm above the soil surface, treated by application of test compounds directly to the paddy water, and then maintained at that water depth for the duration of the test. Treated plants and controls were maintained in a greenhouse for 13 to 15 days, after which time all species were compared to controls and visually evaluated. Plant response ratings, summarized in Table B, are based on a scale of 0 to 100 where 0 is no effect and 100 is complete control. A dash (-) response means no test result.

[18] = test system: umbrella sedge (Cyperus difformis); assay: Test B flooded paddy test, umbrella sedge; conditions: Flood, scale 0 to 100
Excerpt: as §2

[19] = test system: ducksalad (Heteranthera limosa); assay: Test B flooded paddy test, ducksalad; conditions: Flood, scale 0 to 100
Excerpt: as §2

[20] = test system: barnyardgrass (Echinochloa crus-galli); assay: Test B flooded paddy test, barnyardgrass; conditions: Flood
Excerpt: as §2

[21] = 250 g ai/ha, scale 0 to 100 (0 no effect, 100 complete control)

## CCn1c(=O)c(C[S+]([O-])C2=NOC(C)(C)C2)nc2ccccc21 (centres unmarked) [Compound 29]
[1]; 125 g ai/ha
  Plant response rating, Barnyardgrass: 0
[1]; 500 g ai/ha
  Plant response rating, Barnyardgrass: 0
[2]; 125 g ai/ha
  Plant response rating, Crabgrass, Large: 0
[2]; 500 g ai/ha
  Plant response rating, Crabgrass, Large: 0
[3]; 125 g ai/ha
  Plant response rating, Foxtail, Giant: 0
[3]; 500 g ai/ha
  Plant response rating, Foxtail, Giant: 0
[4]; 125 g ai/ha
  Plant response rating, Morningglory: 0
[4]; 500 g ai/ha
  Plant response rating, Morningglory: 0
[5]; 125 g ai/ha
  Plant response rating, Pigweed: 0
[5]; 500 g ai/ha
  Plant response rating, Pigweed: 0
[6]; 125 g ai/ha
  Plant response rating, Velvetleaf: 0
[6]; 500 g ai/ha
  Plant response rating, Velvetleaf: 0
[7]; 125 g ai/ha
  Plant response rating, Wheat: 0
[7]; 500 g ai/ha
  Plant response rating, Wheat: 0
[8]; 125 g ai/ha
  Plant response rating, Corn: 0
[9]; 125 g ai/ha
  Plant response rating, Barnyardgrass: 10
[9]; 500 g ai/ha
  Plant response rating, Barnyardgrass: 20
[10]; 125 g ai/ha
  Plant response rating, Crabgrass, Large: 0
[10]; 500 g ai/ha
  Plant response rating, Crabgrass, Large: 0
[11]; 125 g ai/ha
  Plant response rating, Foxtail, Giant: 0
[11]; 500 g ai/ha
  Plant response rating, Foxtail, Giant: 0
[12]; 125 g ai/ha
  Plant response rating, Morningglory: 0
[12]; 500 g ai/ha
  Plant response rating, Morningglory: 0
[13]; 125 g ai/ha
  Plant response rating, Pigweed: 0
[13]; 500 g ai/ha
  Plant response rating, Pigweed: 0
[14]; 125 g ai/ha
  Plant response rating, Velvetleaf: 0
[14]; 500 g ai/ha
  Plant response rating, Velvetleaf: 0
[15]; 125 g ai/ha
  Plant response rating, Wheat: 0
[15]; 500 g ai/ha
  Plant response rating, Wheat: 0
[16]; 125 g ai/ha
  Plant response rating, Corn: 0
[16]; 500 g ai/ha
  Plant response rating, Corn: 0
[17]; 31 g ai/ha
  Plant response rating, Rice: 0
[17]; 62 g ai/ha
  Plant response rating, Rice: 0
[17]; 125 g ai/ha
  Plant response rating, Rice: 0
[17]; 250 g ai/ha
  Plant response rating, Rice: 0
[18]; 31 g ai/ha
  Plant response rating, Sedge, Umbrella: 0
[18]; 62 g ai/ha
  Plant response rating, Sedge, Umbrella: 0
[18]; 125 g ai/ha
  Plant response rating, Sedge, Umbrella: 0
[18]; 250 g ai/ha
  Plant response rating, Sedge, Umbrella: 0
[19]; 31 g ai/ha
  Plant response rating, Ducksalad: 0
[19]; 62 g ai/ha
  Plant response rating, Ducksalad: 0
[19]; 125 g ai/ha
  Plant response rating, Ducksalad: 0
[19]; 250 g ai/ha
  Plant response rating, Ducksalad: 20
[20]; 31 g ai/ha, scale 0 to 100
  Plant response rating, Barnyardgrass: 0
[20]; 62 g ai/ha, scale 0 to 100
  Plant response rating, Barnyardgrass: 0
[20]; 125 g ai/ha, scale 0 to 100
  Plant response rating, Barnyardgrass: 0
[20]; [21]
  Plant response rating, Barnyardgrass: 0

## CC1(C)CC(S(=O)(=O)Cc2c(C(F)(F)F)nc3n(c2=O)CCCO3)=NO1 [Compound 4]
[1]; 125 g ai/ha
  Plant response rating, Barnyardgrass: 70
[1]; 500 g ai/ha
  Plant response rating, Barnyardgrass: 100
[2]; 125 g ai/ha
  Plant response rating, Crabgrass, Large: 60
[2]; 500 g ai/ha
  Plant response rating, Crabgrass, Large: 100
[3]; 125 g ai/ha
  Plant response rating, Foxtail, Giant: 90
[3]; 500 g ai/ha
  Plant response rating, Foxtail, Giant: 100
[4]; 125 g ai/ha
  Plant response rating, Morningglory: 0
[4]; 500 g ai/ha
  Plant response rating, Morningglory: 70
[5]; 125 g ai/ha
  Plant response rating, Pigweed: 30
[5]; 500 g ai/ha
  Plant response rating, Pigweed: 100
[6]; 125 g ai/ha
  Plant response rating, Velvetleaf: 10
[6]; 500 g ai/ha
  Plant response rating, Velvetleaf: 90
[7]; 125 g ai/ha
  Plant response rating, Wheat: 0
[7]; 500 g ai/ha
  Plant response rating, Wheat: 40
[8]; 125 g ai/ha
  Plant response rating, Corn: 0
[8]; 500 g ai/ha
  Plant response rating, Corn: 50
[9]; 125 g ai/ha
  Plant response rating, Barnyardgrass: 70
[9]; 500 g ai/ha
  Plant response rating, Barnyardgrass: 80
[10]; 125 g ai/ha
  Plant response rating, Crabgrass, Large: 60
[10]; 500 g ai/ha
  Plant response rating, Crabgrass, Large: 80
[11]; 125 g ai/ha
  Plant response rating, Foxtail, Giant: 70
[11]; 500 g ai/ha
  Plant response rating, Foxtail, Giant: 80
[12]; 125 g ai/ha
  Plant response rating, Morningglory: 0
[12]; 500 g ai/ha
  Plant response rating, Morningglory: 50
[13]; 125 g ai/ha
  Plant response rating, Pigweed: 30
[13]; 500 g ai/ha
  Plant response rating, Pigweed: 60
[14]; 125 g ai/ha
  Plant response rating, Velvetleaf: 50
[14]; 500 g ai/ha
  Plant response rating, Velvetleaf: 70
[15]; 125 g ai/ha
  Plant response rating, Wheat: 0
[15]; 500 g ai/ha
  Plant response rating, Wheat: 10
[16]; 125 g ai/ha
  Plant response rating, Corn: 0
[16]; 500 g ai/ha
  Plant response rating, Corn: 50
[17]; 31 g ai/ha
  Plant response rating, Rice: 0
[17]; 62 g ai/ha
  Plant response rating, Rice: 0
[17]; 125 g ai/ha
  Plant response rating, Rice: 0
[17]; 250 g ai/ha
  Plant response rating, Rice: 0
[18]; 31 g ai/ha
  Plant response rating, Sedge, Umbrella: 0
[18]; 62 g ai/ha
  Plant response rating, Sedge, Umbrella: 0
[18]; 125 g ai/ha
  Plant response rating, Sedge, Umbrella: 0
[18]; 250 g ai/ha
  Plant response rating, Sedge, Umbrella: 0
[19]; 31 g ai/ha
  Plant response rating, Ducksalad: 0
[19]; 62 g ai/ha
  Plant response rating, Ducksalad: 0
[19]; 125 g ai/ha
  Plant response rating, Ducksalad: 0
[19]; 250 g ai/ha
  Plant response rating, Ducksalad: 0
[20]; 31 g ai/ha, scale 0 to 100
  Plant response rating, Barnyardgrass: 0
[20]; 62 g ai/ha, scale 0 to 100
  Plant response rating, Barnyardgrass: 0
[20]; 125 g ai/ha, scale 0 to 100
  Plant response rating, Barnyardgrass: 0
[20]; [21]
  Plant response rating, Barnyardgrass: 0
